# PMC9953308, “The Mechanism of Enantioselective Neurosteroid Actions on GABAA Receptors” (Biomolecules, 2023)
# Tests used:
# [1] = target: T1, α1β3 GABAA receptor (α1 subunit) (Homo sapiens, UniProt P14867); experiment: photoaffinity labeling ([…]) with middle-down MS identification of adducted residue; format: binding
# T1 construct: gene GABRA1; human α1-8xHis-FLAG and human β3 GABAA receptor in HEK-T-Rex-293 membranes; with GABAA receptor β3 subunit (GABRB3)
# T1 sequence (P14867 28-456): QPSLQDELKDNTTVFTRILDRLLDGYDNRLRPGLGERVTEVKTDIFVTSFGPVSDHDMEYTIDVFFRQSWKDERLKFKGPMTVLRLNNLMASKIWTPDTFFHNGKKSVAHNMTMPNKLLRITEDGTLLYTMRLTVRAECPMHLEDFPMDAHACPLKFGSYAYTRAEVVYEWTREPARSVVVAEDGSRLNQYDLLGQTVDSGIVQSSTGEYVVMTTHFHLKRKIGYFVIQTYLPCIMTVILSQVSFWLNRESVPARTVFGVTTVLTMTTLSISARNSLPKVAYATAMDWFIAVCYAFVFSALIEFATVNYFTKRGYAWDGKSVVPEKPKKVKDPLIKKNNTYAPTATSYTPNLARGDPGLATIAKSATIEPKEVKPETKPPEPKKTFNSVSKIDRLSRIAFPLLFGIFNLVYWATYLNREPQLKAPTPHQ
# T1 sequence (P28472 26-473 partner): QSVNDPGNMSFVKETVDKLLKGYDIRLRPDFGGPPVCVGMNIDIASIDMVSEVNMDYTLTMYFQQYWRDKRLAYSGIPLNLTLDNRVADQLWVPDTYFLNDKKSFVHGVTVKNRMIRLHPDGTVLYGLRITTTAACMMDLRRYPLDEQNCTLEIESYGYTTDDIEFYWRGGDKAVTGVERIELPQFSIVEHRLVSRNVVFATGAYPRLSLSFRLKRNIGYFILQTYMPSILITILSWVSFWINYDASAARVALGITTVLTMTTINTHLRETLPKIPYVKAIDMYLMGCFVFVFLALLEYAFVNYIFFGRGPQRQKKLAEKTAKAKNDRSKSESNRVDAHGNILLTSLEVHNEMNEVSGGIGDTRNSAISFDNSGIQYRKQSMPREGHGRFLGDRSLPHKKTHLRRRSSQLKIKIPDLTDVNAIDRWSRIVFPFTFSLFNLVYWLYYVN
# [2] = target: T2, α1β3 GABAA receptor (β3 subunit; β3-α1 intersubunit site) (Homo sapiens, UniProt P14867+P28472); experiment: competitive prevention of KK200/KK123 photolabeling with MS readout; EC50 from oocyte two-electrode voltage clamp (potentiation of GABA currents); format: cell-based
# T2 construct: gene GABRB3; human α1-8xHis-FLAG and human β3 GABAA receptor in HEK-T-Rex-293 membranes; human α1β3 in Xenopus oocytes for EC50; with GABAA receptor α1 subunit (GABRA1)
# T2 sequence (P28472 26-473): T1 sequence (P28472 26-473 partner)
# T2 sequence (P14867 28-456): T1 sequence (P14867 28-456)
# [3] = target: T2, α1β3 GABAA receptor (β3 subunit; β3-α1 intersubunit site); experiment: competitive prevention of KK123 photolabeling with MS readout; EC50 from oocyte two-electrode voltage clamp (weak potentiation of GABA currents); format: cell-based
compound,measurement,setting,value
C#CCCO[C@@H]1C[C@@]2(C)[C@@H]3CC[C@]4(C)[C@H](CC[C@H]4OC)[C@H]3CC3(N=N3)[C@@H]2C[C@H]1O [KK152],photoaffinity labeling (30 μM) with middle-down MS identification of adducted re,[1],A fragmentation ion spectrum of this peptide identified Tyr415 as the site of KK152 adduction
"CC(=O)[C@H]1CC[C@H]2[C@@H]3CC[C@H]4C[C@H](O)CC[C@]4(C)[C@H]3CC[C@]12C [ALLO, 3α-hydroxy-5α-pregnan-20-one]",EC50,[2],0.08 ± 0.01 µM
"CC(=O)[C@@H]1CC[C@@H]2[C@H]3CC[C@@H]4C[C@@H](O)CC[C@@]4(C)[C@@H]3CC[C@]21C [ent-ALLO, ent-allopregnanolone]",EC50,[3],2 ± 0.3 µM
